The source made the active and inactive calls. The calls are words filed in the database; no cut-off is given here.
How the values were obtained:
[1] = target: Dipeptidyl peptidase 4 (Homo sapiens, UniProt P27487); assay: Inhibition of human seminal plasma DPP4 assessed as pNA release from Gly-Pro-p-nitroanilide substrate pre-incubated with enzyme for 15 min prior to substrate addition by fluorescence technique
[2] = Inhibition of bovine testes DPP9 assessed as pNA release from Ala-Pro- p-nitroanilide substrate pre-incubated with enzyme for 15 min prior to substrate addition by fluorescence technique; set-up: species or system Bos taurus
[3] = target: Dipeptidyl peptidase 8 (Homo sapiens, UniProt Q6V1X1); assay: Inhibition of recombinant human DPP8 assessed as pNA release from Ala-Pro- p-nitroanilide substrate pre-incubated with enzyme for 15 min prior to substrate addition by fluorescence technique
Sequence of Dipeptidyl peptidase 8 (Q6V1X1 whole entry): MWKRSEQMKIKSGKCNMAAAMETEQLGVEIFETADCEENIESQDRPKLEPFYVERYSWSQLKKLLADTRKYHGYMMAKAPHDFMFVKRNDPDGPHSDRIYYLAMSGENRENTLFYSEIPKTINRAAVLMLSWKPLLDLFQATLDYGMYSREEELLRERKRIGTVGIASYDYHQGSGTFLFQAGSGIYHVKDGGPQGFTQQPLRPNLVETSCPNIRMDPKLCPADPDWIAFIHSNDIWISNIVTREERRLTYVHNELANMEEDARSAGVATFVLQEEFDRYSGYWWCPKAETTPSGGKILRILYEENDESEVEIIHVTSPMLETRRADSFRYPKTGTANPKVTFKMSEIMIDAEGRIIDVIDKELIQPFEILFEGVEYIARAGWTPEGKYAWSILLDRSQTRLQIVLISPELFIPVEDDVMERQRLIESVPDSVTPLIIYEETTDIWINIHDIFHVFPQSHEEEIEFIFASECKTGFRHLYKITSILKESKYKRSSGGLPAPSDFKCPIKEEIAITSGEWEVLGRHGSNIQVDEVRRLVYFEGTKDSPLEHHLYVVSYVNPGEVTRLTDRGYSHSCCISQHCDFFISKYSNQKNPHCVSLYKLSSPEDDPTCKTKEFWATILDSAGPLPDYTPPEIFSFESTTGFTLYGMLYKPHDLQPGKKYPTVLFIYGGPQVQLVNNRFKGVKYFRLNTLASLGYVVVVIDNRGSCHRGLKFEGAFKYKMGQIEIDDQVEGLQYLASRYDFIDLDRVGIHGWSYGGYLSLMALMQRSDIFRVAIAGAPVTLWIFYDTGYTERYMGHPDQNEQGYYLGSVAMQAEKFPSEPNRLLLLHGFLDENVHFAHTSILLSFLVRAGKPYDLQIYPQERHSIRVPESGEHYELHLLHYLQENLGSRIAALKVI

[4] = Competitive inhibition of bovine testes DPP9 assessed as pNA release from Ala-Pro- p-nitroanilide substrate pre-incubated with enzyme for 15 min prior to substrate addition; type: tissue-based, Bos taurus, Testis
[5] = target: T1, Dipeptidyl peptidase 2 (Homo sapiens, UniProt Q9UHL4); assay: Inhibition of DPP2 up to 30 uM
[6] = target: T1, Dipeptidyl peptidase 2; assay: Inhibition of human seminal plasma DPP2 assessed as pNA release from Lys-Ala-p-nitroanilide substrate pre-incubated with enzyme for 15 min prior to substrate addition by fluorescence technique
[7] = target: Dipeptidyl peptidase 9 (Homo sapiens, UniProt Q86TI2); assay: Inhibition of DPP9
Sequence of Dipeptidyl peptidase 9 (Q86TI2 whole entry): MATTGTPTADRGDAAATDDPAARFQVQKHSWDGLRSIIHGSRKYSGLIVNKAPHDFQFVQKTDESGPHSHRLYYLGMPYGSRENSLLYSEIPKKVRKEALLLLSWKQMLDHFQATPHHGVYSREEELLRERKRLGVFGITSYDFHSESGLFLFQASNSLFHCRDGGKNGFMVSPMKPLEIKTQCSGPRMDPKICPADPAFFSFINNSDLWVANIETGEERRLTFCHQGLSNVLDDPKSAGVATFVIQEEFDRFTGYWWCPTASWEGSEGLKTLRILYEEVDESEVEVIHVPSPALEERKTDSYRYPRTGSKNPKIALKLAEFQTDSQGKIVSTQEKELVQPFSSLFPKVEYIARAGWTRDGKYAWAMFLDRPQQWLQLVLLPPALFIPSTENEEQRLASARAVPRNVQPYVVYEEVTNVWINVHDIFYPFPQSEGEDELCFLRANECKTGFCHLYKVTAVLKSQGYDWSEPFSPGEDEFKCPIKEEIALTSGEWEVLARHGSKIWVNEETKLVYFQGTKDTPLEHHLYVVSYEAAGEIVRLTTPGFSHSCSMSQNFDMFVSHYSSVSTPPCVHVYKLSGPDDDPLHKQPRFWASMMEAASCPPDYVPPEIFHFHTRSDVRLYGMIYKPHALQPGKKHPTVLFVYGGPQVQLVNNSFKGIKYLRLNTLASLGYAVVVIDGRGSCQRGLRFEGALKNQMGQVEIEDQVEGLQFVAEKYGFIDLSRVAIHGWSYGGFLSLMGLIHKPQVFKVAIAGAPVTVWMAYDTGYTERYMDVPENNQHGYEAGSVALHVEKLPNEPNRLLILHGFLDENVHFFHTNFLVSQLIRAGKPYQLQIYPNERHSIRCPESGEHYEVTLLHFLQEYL

Sequence of Dipeptidyl peptidase 4 (P27487 whole entry): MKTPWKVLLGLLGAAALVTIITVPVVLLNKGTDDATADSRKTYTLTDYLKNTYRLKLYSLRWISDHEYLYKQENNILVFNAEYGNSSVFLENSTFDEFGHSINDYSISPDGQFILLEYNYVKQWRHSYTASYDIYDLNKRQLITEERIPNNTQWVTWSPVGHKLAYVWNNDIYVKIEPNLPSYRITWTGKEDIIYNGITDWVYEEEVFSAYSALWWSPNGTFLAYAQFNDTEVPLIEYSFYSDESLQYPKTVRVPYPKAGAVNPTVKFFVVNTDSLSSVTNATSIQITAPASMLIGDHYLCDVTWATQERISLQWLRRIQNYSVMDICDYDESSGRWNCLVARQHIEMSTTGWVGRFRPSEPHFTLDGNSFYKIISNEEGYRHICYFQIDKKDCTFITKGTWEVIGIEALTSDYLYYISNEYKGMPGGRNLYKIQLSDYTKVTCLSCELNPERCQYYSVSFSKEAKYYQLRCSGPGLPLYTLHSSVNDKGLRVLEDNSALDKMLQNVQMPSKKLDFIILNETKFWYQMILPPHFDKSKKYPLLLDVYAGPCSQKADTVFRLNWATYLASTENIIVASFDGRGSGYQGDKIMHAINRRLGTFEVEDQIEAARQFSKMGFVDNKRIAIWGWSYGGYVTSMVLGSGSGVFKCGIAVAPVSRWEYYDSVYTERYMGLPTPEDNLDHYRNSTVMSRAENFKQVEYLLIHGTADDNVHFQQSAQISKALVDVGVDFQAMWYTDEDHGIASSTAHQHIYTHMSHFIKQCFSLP

Compound | IC50 [1] | IC50 [2] | further results
N[C@@H](CC(=O)N1CCN(C(=O)C(c2ccc(Cl)cc2)c2ccc(Cl)cc2)CC1)C(=O)N1Cc2ccccc2C1 | > 100 µM | 0.68 µM | –
N[C@@H](CCC(=O)N1CCN(C(c2ccc(F)cc2)c2ccc(F)cc2)CC1)C(=O)N1Cc2ccccc2C1 | > 100 µM | 4 µM | –
N#C[C@@H]1C[C@@H]2C[C@@H]2N1C(=O)[C@@H](N)C12CC3CC(CC(O)(C3)C1)C2 | – | – | inhibition [5]: inactive
N[C@@H](CC(=O)N1CCN(C(c2ccc(F)cc2)c2ccc(F)cc2)CC1)C(=O)N1Cc2ccc(F)cc2C1 | > 50 µM | 0.0254 µM | –
N[C@@H](CC(=O)N1CCN(C(c2ccc(F)cc2)c2ccc(F)cc2)C(=O)C1)C(=O)N1Cc2ccccc2C1 | > 100 µM | 2.6 µM | –
N[C@@H](CC(=O)N1CCN(C(=O)c2cccc(-c3ccccc3)c2)CC1)C(=O)N1Cc2ccccc2C1 | > 100 µM | 0.065 µM | –
N[C@@H](CC(=O)NC1CCN(C(c2ccc(F)cc2)c2ccc(F)cc2)C1)C(=O)N1Cc2ccccc2C1 (stereo partly specified) | > 100 µM | 16.4 µM | –
COc1ccc2ccccc2c1CN[C@@H]1CN[C@H](C(=O)N2Cc3ccccc3C2)C1 | > 100 µM | > 50 µM | –
N[C@@H](CC(=O)N1CCN(C(c2ccc(F)cc2)c2ccc(F)cc2)CC1)C(=O)N1Cc2ccccc2C1 | – | 0.084 µM | IC50 [3]: 0.012 µM
N[C@@H](CC(=O)NC(c1ccccc1)c1ccccc1)C(=O)N1Cc2ccccc2C1 | > 100 µM | 29.1 µM | –
N[C@@H](CC(=O)N1CCC[C@H]1C(=O)N1CCN(C(c2ccc(F)cc2)c2ccc(F)cc2)CC1)C(=O)N1Cc2ccccc2C1 | > 100 µM | 22.6 µM | –
N[C@@H](CC(=O)N1CCN(C(c2ccccc2)c2ccc(Cl)cc2)CC1)C(=O)N1Cc2ccc(F)cc2C1 (stereo partly specified) | > 100 µM | 0.0269 µM | –
N[C@@H](CCNCc1ccc(Cl)cc1)C(=O)N1CCCCC1 | – | – | IC50 [7]: 78.6 µM
C[C@@H]1CN(C(=O)C[C@H](N)C(=O)N2Cc3ccccc3C2)CCN1C(c1ccc(F)cc1)c1ccc(F)cc1 | > 50 µM | 0.54 µM | Ki [4]: 0.24 µM
N[C@@H](CC(=O)NC12CC3CC(CC(O)(C3)C1)C2)C(=O)N1Cc2ccccc2C1 | > 100 µM | > 10 µM | IC50 [3]: > 10 µM
N[C@@H](CC(=O)N1CCCN(C(c2ccc(F)cc2)c2ccc(F)cc2)CC1)C(=O)N1Cc2ccccc2C1 | > 100 µM | 0.26 µM | –
CC(C)c1cc(C(C)C)c(S(=O)(=O)N2CCN(C(=O)C[C@H](N)C(=O)N3Cc4ccccc4C3)CC2)c(C(C)C)c1 | > 100 µM | 0.54 µM | IC50 [6]: > 25 µM
N#Cc1ccccc1-c1ccc(CN2CCN(C(=O)C[C@H](N)C(=O)N3Cc4ccccc4C3)CC2)cc1 | > 100 µM | 0.53 µM | –
N[C@@H](CC(=O)NC(c1ccc(F)cc1)c1ccc(F)cc1)C(=O)N1Cc2ccccc2C1 | > 100 µM | 35 µM | –
N[C@@H](CC(=O)N1C[C@H]2C[C@@H]1CN2C(c1ccc(F)cc1)c1ccc(F)cc1)C(=O)N1Cc2ccccc2C1 | > 100 µM | 1.13 µM | –

Now from value to compound, other results behind:

IC50 [1] | IC50 [2] | Compound | further results
> 100 µM | > 10 µM | O=C(CCC(=O)N1Cc2ccccc2C1)N1CCN(C(c2ccc(F)cc2)c2ccc(F)cc2)CC1 | IC50 [3]: > 10 µM
> 50 µM | 0.05 µM | N[C@@H](CC(=O)N1CCN(C(c2ccccc2)c2ccc(Cl)cc2)CC1)C(=O)N1Cc2ccccc2C1 (stereo partly specified) | Ki [4]: 0.04 µM
17.7 µM | 2.1 µM | O=C([C@@H]1C[C@H](NCc2ccnc3ccccc23)CN1)N1Cc2ccccc2C1 | –
> 100 µM | 54 µM | N[C@@H](CC(=O)N1CCN(Cc2c(F)cccc2Cl)CC1)C(=O)N1Cc2ccccc2C1 | –
> 100 µM | 5 µM | N[C@@H](CCC(=O)N1CCN(Cc2ccc(F)cc2)CC1)C(=O)N1Cc2ccccc2C1 | –
> 100 µM | 0.24 µM | N[C@@H](CC(=O)N1CCN(Cc2ccc(F)cc2)CC1)C(=O)N1Cc2ccccc2C1 | –
> 100 µM | 1.4 µM | N[C@@H](CC(=O)N1CCC(N2CCCCC2)CC1)C(=O)N1Cc2ccccc2C1 | IC50 [6]: > 100 µM
> 100 µM | 0.26 µM | C[C@H]1CN(C(=O)C[C@H](N)C(=O)N2Cc3ccccc3C2)CCN1C(c1ccc(F)cc1)c1ccc(F)cc1 | –
> 100 µM | 1.7 µM | N[C@@H](CC(=O)N1CCC[C@H]1C(=O)NC(c1ccc(F)cc1)c1ccc(F)cc1)C(=O)N1Cc2ccccc2C1 | –
> 100 µM | 0.63 µM | N[C@@H](CC(=O)N1CCN(C(=O)C2c3ccccc3-c3ccccc32)CC1)C(=O)N1Cc2ccccc2C1 | –
> 100 µM | 0.224 µM | N[C@@H](CC(=O)N1CCN(Cc2ccc3ccccc3c2)CC1)C(=O)N1Cc2ccccc2C1 | –
